Source: paper PMC3131678 (Interdisciplinary Toxicology, 2011)
Where two headings read alike, the source gives them in different places.

How the values were obtained:
CYP1A2 [1] = biological target: T1, CYP1A2 (Sus scrofa, UniProt F1SJ26); assay: Inhibition of 7-methoxyresorufin O-demethylase (MROD) activity in porcine hepatic microsomes
T1 sequence (F1SJ26 1-516): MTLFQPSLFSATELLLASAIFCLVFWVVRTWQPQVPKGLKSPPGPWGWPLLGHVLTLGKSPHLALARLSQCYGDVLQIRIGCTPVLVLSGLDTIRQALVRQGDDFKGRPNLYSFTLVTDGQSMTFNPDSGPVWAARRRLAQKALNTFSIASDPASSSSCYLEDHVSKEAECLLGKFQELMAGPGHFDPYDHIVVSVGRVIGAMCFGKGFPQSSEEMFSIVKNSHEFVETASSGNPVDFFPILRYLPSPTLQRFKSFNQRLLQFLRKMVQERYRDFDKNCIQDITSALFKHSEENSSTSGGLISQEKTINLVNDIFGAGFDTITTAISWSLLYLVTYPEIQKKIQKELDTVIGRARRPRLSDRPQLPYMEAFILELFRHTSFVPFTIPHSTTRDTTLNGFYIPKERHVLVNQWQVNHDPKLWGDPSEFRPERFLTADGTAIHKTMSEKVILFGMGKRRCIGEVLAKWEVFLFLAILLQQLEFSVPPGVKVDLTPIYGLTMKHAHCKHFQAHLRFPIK
Experimental: (§1) All procedures were done on ice.
(§2) All steroids were dissolved in methanol. […] Kinetic studies were performed under linear conditions.
(§3) The activities were measured in pooled microsomes, thus taking into consideration between-individual variations in enzyme activities and potential response to the presence of steroids.

CYP2E1 [2] = biological target: T2, CYP2E1 (Sus scrofa, UniProt P79383); assay: Inhibition of p-nitrophenol hydroxylase (PNPH) activity in porcine hepatic microsomes
T2 sequence (P79383 whole entry): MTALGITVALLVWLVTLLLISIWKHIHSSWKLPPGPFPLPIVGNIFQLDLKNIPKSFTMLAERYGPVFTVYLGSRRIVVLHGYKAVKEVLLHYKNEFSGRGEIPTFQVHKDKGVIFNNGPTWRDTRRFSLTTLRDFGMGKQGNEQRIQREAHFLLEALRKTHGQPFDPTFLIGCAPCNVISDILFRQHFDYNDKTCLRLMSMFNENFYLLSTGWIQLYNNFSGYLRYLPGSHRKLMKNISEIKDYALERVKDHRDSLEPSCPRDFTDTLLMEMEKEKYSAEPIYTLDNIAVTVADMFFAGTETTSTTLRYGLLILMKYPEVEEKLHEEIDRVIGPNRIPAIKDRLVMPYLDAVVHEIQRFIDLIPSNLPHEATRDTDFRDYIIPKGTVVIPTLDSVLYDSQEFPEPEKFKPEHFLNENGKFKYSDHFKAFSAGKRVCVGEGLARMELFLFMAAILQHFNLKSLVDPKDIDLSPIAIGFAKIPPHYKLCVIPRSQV
Experimental: as §1, §2, §3

CYP1A1 [3] = assay: Inhibition of 7-ethoxyresorufin O-deethylase (EROD) activity in porcine hepatic microsomes
Experimental: as §1, §2, §3

CYP1A1 [4] = assay: Enzyme kinetic analysis of EROD (resorufin formation from 7-ethoxyresorufin) in porcine hepatic microsomes; assay type: in vitro ADME; settings: CI 95% confidence interval
Experimental: as §1, §2
V=(Vmax1*S)/(Km1+S)+(V max2*S)/(Km2+S),
where Km1 and Km2 are Michaelis constants for the high- and low-affinity components, respectively, and Vmax1 and Vmax2 are the maximum reaction velocities for the high- and low-affinity components, respectively.

CYP1A2 [5] = biological target: T1, CYP1A2
Experimental: as §1, §2

CYP1A1 [6] = test system: CYP1A1; parameters: method as in Zamaratskaia et al., [2009]; settings: 1.8 to 72 pmol/ml; microsomes from entire and castrated male pigs; ref Zamaratskaia et al., [2009]; cited from earlier work
CYP2E1 [7] = biological target: T2, CYP2E1; settings: cited from earlier work
[8] = 100 µM steroid, pooled microsomes from three entire male pigs, altered = differs from control by at least 30%
[9] = lower concentrations (0.02 and 1.0 µM), pooled microsomes from entire male pigs
[10] = all concentrations tested (up to 100.0 µM), microsomes from mature male pigs
[11] = steroid 0.55, 1.0 and 100.0 µM, pooled microsomes from entire male pigs

C[C@]12CC[C@@H]3c4ccc(O)cc4CC[C@H]3[C@@H]1CC[C@H]2O [17α-estradiol]
Inhibition of MROD activity (CYP1A2 [1]; [8]): inhibited
Inhibition of MROD activity (CYP1A2 [1]; [9]): no inhibitory effect
Inhibition of PNPH activity (CYP2E1 [2]; [10]): inhibited only by 100 µM of 17β-estradiol
Inhibition of EROD activity (CYP1A1 [3]; [8]): inhibited
Inhibition of EROD activity (CYP1A1 [3]; [9]): no inhibitory effect

C[C@]12CC[C@H](O)C[C@@H]1CC[C@@H]1[C@@H]2CC[C@]2(C)C=CC[C@@H]12 [3β-androstenol]
Inhibition of MROD activity (CYP1A2 [1]; [11]): only 17β-estradiol and 17α-estradiol inhibited
Inhibition of PNPH activity (CYP2E1 [2]; [10]): inhibited only by 100 µM of 17β-estradiol
Inhibition of EROD activity (CYP1A1 [3]; [11]): only 17β-estradiol and 17α-estradiol inhibited

C[C@]12CCC(=O)C[C@@H]1CC[C@@H]1[C@@H]2CC[C@]2(C)[C@@H](O)CC[C@@H]12 [DHT, dihydrotestosterone]
Magnitude of MROD inhibition (CYP1A2 [1]; steroid 0.55, 1.0 and 100.0 µM, relative to control incubations): ≤ 30%
Inhibition of PNPH activity (CYP2E1 [2]; [10]): inhibited only by 100 µM of 17β-estradiol
Inhibition of EROD activity (CYP1A1 [3]; [11]): only 17β-estradiol and 17α-estradiol inhibited

CCOc1ccc2nc3ccc(=O)cc-3oc2c1 [7-ethoxyresorufin]
Km (CYP1A1 [4]; high affinity component): 0.01 µM
Km (CYP1A1 [4]; low affinity component): 1.7 µM
Vmax, pmol/min/mg (CI) (CYP1A1 [4]; low affinity component): 15.2 (9.64–20.71) pmol/min/mg

COc1ccc2nc3ccc(=O)cc-3oc2c1 [7-methoxy-resorufin, 7-methoxyresorufin]
Km (CYP1A2 [5]): 0.13 µM

C[C@]12CC[C@@H]3c4ccc(O)cc4CC[C@H]3[C@@H]1CC[C@@H]2O [17β-estradiol]
Effect on EROD activity (CYP1A1 [6]): did not alter
Inhibition of MROD activity (CYP1A2 [1]; [8]): inhibited
Inhibition of MROD activity (CYP1A2 [1]; [9]): no inhibitory effect
Inhibition of PNPH activity (CYP2E1 [2]; 100 µM steroid, pooled microsomes from three mature entire male pigs): Inhibition of PNPH activity was observed
Inhibition of PNPH activity (CYP2E1 [2]; lower concentrations (0.02 and 1.0 µM), microsomes from mature male pigs): observed only in the presence of high concentrations
Type of inhibition of PNPH (CYP2E1 [7]; microsomes from prepubertal male pigs, ref Zamaratskaia et al. ([2007])): mixed inhibitor
Inhibition of PNPH activity (CYP2E1 [7]; physiological concentrations, ref Rasmussen et al. (2010a)): inhibit
Inhibition of EROD activity (CYP1A1 [3]; [8]): inhibited
Inhibition of EROD activity (CYP1A1 [3]; [9]): no inhibitory effect
